Laboratory results from patent publication US20220273754A1, “SS-31 FOR THE PREVENTION AND/OR TREATMENT OF ANEURYSM” (FUNDACIÓ INSTITUT DE RECERCA DE L'HOSPITAL DE LA SANTA CREU …, priority 2019, published 2022).
Non-standard residues stand in square brackets, D forms with d. No end group written: not given here.

Experiments:
[1] = system: ApoE−/− mice infused with Ang II; assay: Survival of Ang II-infused ApoE−/− mice; type: in vivo; settings: 3 mg/kg/day with Ang II 1000 ng/kg/min by osmotic minipump, 28 days
Experimental: (§1) The studies were developed in ApoE^−/− mice bred in the facility. The animals were infused with Ang II dissolved in saline (1000 ng/kg/min) by means of osmotic minipumps (model 1004, Alzet) implanted subcutaneously in the interscapular space of the mice previous anesthesia with isoflurane. The procedure lasted approximately 15 minutes per animal. Immediately after surgery, antibiotics (penicillin, 22,000 u/Kg, i.m.) and analgesics (buprenorphine 0.05 mg/Kg, i.m.) were administered to prevent infections and limit discomfort in the animals. Further, mice were kept on a heating pad until they woke up after surgery and were carefully monitored during the post-surgery period.
(§2) A group of mice infused with Ang II were treated with SS-31 in the form of chloride and dissolved in saline (3 mg/kg/day). Another group of animals infused with Ang II were treated with the SS-20 peptide also in the form of chloride, dissolved in saline and at the same dose. Both were administered together with Ang II by osmotic mini pump during the whole study (28 days). The control group consisted of ApoE^−/− mice infused with saline.

[2] = system: angiotensin II (AngII)-induced cardiac hypertrophy; settings: in vivo; cited from earlier work
[3] = system: myocardial contractile force during ischemia-reperfusion; settings: SS-20 given after ischemia; cited from earlier work
MMP2 = MMP2 mRNA by real-time PCR in abdominal aorta of Ang II-infused ApoE−/− mice; type: in vivo; settings: 3 mg/kg/day with Ang II 1000 ng/kg/min, 28 days; normalized to GAPDH
Experimental: as §1
as §2, with “saline. […]” for “saline.”
(§3) The expression levels (mRNA) of the metalloproteinases MMP2 and MMP9 in the abdominal aortas of the different study groups were also analyzed. […]

[4] = system: mitochondrial permeability transition; settings: cited from earlier work
MMP9 = MMP9 mRNA by real-time PCR in abdominal aorta of Ang II-infused ApoE−/− mice; type: in vivo; settings: 3 mg/kg/day with Ang II 1000 ng/kg/min, 28 days; normalized to GAPDH
Experimental: as §1
as §2, with “saline. […]” for “saline.”
as §3

[5] = system: abdominal aorta of ApoE−/− mice infused with Ang II; assay: Histology (Masson's trichrome, orcein) of abdominal aorta of Ang II-infused ApoE−/− mice; type: in vivo; settings: 3 mg/kg/day with Ang II 1000 ng/kg/min, 28 days
Experimental: as §1, §2
(§4) After 4 weeks, the animals were euthanized under intraperitoneal terminal anesthesia with a mixture of medetomidine (1 mg/kg) and ketamine (75 mg/kg) in saline (final volume of 200 μl), the aortas were collected immediately, examined to determine the presence of aneurysms and fixed in paraformaldehyde or frozen in liquid nitrogen for subsequent RNA extraction.

[6] = system: mitochondrial swelling and cytochrome c release; settings: cited from earlier work
diabetic rats = settings: cited from earlier work; for body weight: diabetic rats; for lipid metabolism: rat, in vivo
[7] = system: ApoE−/− mice infused with Ang II; assay: Aortic diameter and aneurysm incidence by ultrasonography in Ang II-infused ApoE−/− mice; type: in vivo; settings: 28 days; for aortic diameter: 3 mg/kg/day with Ang II 1000 ng/kg/min by osmotic minipump, ultrasonography and macroscopic visualization; for incidence of AAA: 3 mg/kg/day with Ang II 1000 ng/kg/min, aneurysmal = external diameter >= 1.5 mm
Experimental: as §1, §2
The diameter of the aorta was evaluated weekly by abdominal echography using an ultrasound equipment (Vevo2100 Imaging systems; Visualsonics) with a 30 MHz transducer. The mice were anesthetized by inhalation of 1.5% isofluorane and secured in supine position on a thermal platform. After shaving the precord region, the transducer was applied to the abdominal wall to measure the abdominal aorta. Those abdominal aortas with external diameters greater than or equal to 1.5 mm were considered aneurysmal. All measurements were made from the captured images using the analysis software provided by Visualsonics.
as §4

[8] = system: humans and rodents maintained on a high fat diet; settings: cited from earlier work
[9] = system: renal mitochondrial respiration; settings: after ischemia; cited from earlier work
[10] = system: reactive oxygen species (ROS) production and lipid peroxidation; settings: direct inhibition; cited from earlier work

Q: For “D-Arg-2′,6′-dimethyltyrosine-Lys-Phe-NH2 [SS-31]”, which survival rate [1] is on record?
A: significantly improved the survival rate

Q: What about the “AngII-induced cardiac hypertrophy, fibrosis and diastolic dysfunction” value [2] of the same substance?
A: ameliorates

Q: What about the “protection of myocardial contractile force” value [3] of the same substance?
A: protects myocardial contractile force

Q: What about the “aortic MMP2 expression (mRNA)” value (MMP2) of the same substance?
A: attenuated this effect

Q: And the mitochondrial permeability transition [4]?
A: inhibits mitochondrial permeability transition

Q: What about the “aortic MMP9 expression (mRNA)” value (MMP9) of the same substance?
A: attenuated this effect

Q: And the “disorganization and rupture of elastic fibers (orcein staining)” value [5]?
A: limited the disorganization and rupture of elastic fibers

Q: What about the “vascular remodeling: collagen deposition (Masson's trichrome)” value [5] of the same substance?
A: attenuated by treatment with SS-31

Q: And the “mitochondrial swelling and cytochrome c release” value [6]?
A: inhibits mitochondrial swelling and cytochrome c release

Q: And the body weight (diabetic rats)?
A: useful in reducing body weight

Q: And the lipid metabolism (diabetic rats)?
A: beneficial effects on lipid metabolism

Q: And the aortic diameter [7]?
A: reduced the increase in aortic diameter significantly

Q: What about the “incidence of AAA” value [7] of the same substance?
A: significantly decreased the incidence of AAA

Q: What about the insulin resistance [8] of the same substance?
A: attenuates insulin resistance

Q: What about the renal mitochondrial respiration [9] of the same substance?
A: significantly improved renal mitochondrial respiration

Q: What about the “ROS production and lipid peroxidation” value [10] of the same substance?
A: directly inhibit reactive oxygen species (ROS) production and lipid peroxidation

Q: With F[dR]FK-NH2 [SS-20] as the substance, how does the survival rate [1] read?
A: did not modify the survival rate

Q: What about the “protection of myocardial contractile force” value [3] of the same substance?
A: offered no protection

Q: And the “aortic MMP2 expression (mRNA)” value (MMP2)?
A: did not modify the increase in the mRNA level

Q: And the mitochondrial permeability transition [4]?
A: inhibits mitochondrial permeability transition

Q: What about the “aortic MMP9 expression (mRNA)” value (MMP9) of the same substance?
A: did not modify the increase in the mRNA level

Q: And the “disorganization and rupture of elastic fibers (orcein staining)” value [5]?
A: not observed in animals treated with SS-20

Q: What about the “vascular remodeling: collagen deposition (Masson's trichrome)” value [5] of the same substance?
A: not by treatment with SS-20

Q: What about the body weight (diabetic rats) of the same substance?
A: useful in reducing body weight

Q: And the lipid metabolism (diabetic rats)?
A: beneficial effects on lipid metabolism

Q: And the aortic diameter [7]?
A: could not attenuate this increase in the aortic diameter

Q: What about the “incidence of AAA” value [7] of the same substance?
A: did not alter the aortic diameter nor the incidence of aneurysms

Q: And the renal mitochondrial respiration [9]?
A: significantly improved renal mitochondrial respiration

Q: And the “ROS production and lipid peroxidation” value [10]?
A: only SS-31 was demonstrated to directly inhibit
